Source: patent US8575135B2 (Gilead Sciences, Inc., priority 2011, dated 2013)
Read-outs that look alike come from different tables or passages of the source.

Key:
Assay in all cases: microbe, parasite or virus in culture
Settings in all cases: Hepatitis C virus
[1] = system: stable HCV 1a RLuc replicon cells (genotype 1a H77 replicon); type: cell-based
Procedure: (§1) Evaluation of Cell-Based Anti-HCV Activity:
(§2) Antiviral potency (EC50) was determined using a Renilla luciferase (RLuc)-based HCV replicon reporter assay. […] To perform the assay for genotype 2a (with M31 present in NS5A) or 2b, NS5A chimeric genotype 2a JFH-1 replicons that encodes a RLuc-Neo reporter and either genotype 2a J6 strain NS5A gene or genotype 2b MD2b-1 strain NS5A gene (both with M31 present) respectively, were either transiently transfected (t) into Huh-Lunet cells or were established as stably replicating replicon cells (s) is provided. Either cells were dispensed into 384-well plates for EC50 assays. To perform the assay for genotype 3 and 4, NS5A chimeric genotype 1b Con1 replicons that encodes a Pi-RLuc reporter and either genotype 3a S52 strain NS5A gene or genotype 4a ED43 strain NS5A gene respectively, were transiently transfected (t) into Huh-Lunet cells, which were subsequently dispensed into 384-well plates. Compounds were dissolved in DMSO at a concentration of 10 mM and diluted in DMSO either manually or using an automated pipeting instrument. Serially 3-fold diluted compounds were either manually mixed with cell culture media and added to the seeded cells or directly added to the cells using an automated instrument. […] 72 hours later, cells were lysed and Renilla luciferase activity quantified as recommended by the manufacturer (Promega-Madison, Wis.). Non-linear regression was performed to calculate EC50 values.

[2] = system: stable HCV 2a JFH-1 Rluc replicon cells (L31 present in NS5A); type: cell-based
[3] = system: NS5A chimeric genotype 1b Con1 replicon with genotype 3a S52 strain NS5A gene; type: cell-based, HCV
Procedure: as §1, §2

[4] = system: NS5A chimeric genotype 2a JFH-1 replicon with genotype 2a J6 strain NS5A gene (M31 present); type: cell-based, HCV
Procedure: as §1, §2

[5] = system: NS5A chimeric genotype 2a JFH-1 replicon with genotype 2b MD2b-1 strain NS5A gene (M31 present); type: cell-based, HCV
Procedure: as §1, §2

[6] = system: NS5A chimeric genotype 1b Con1 replicon with genotype 4a ED43 strain NS5A gene; type: cell-based, HCV
[7] = system: 1a Pi-Rluc replicon with Q30R in genotype 1a NS5A; type: cell-based, HCV
Procedure: as §2
To determine the antiviral potency (EC50) against resistance mutants, resistance mutations, including M28T, Q30R, Q30H, L31M, and Y93C in genotype 1a NS5A and Y93H in genotype 1b NS5A, were introduced individually into either 1a Pi-Rluc or 1b Pi-Rluc replicons by site directed mutagenesis. Replicon RNA of each resistant mutant was transiently transfected into Huh-7-derived cured-51 cells and antiviral potency was determined on these transfected cells as described above.

| Structure (SMILES) | EC50 ([1]; read-out: 1a) [nM] | EC50 ([1]; read-out: 1a (nM)) [nM] | EC50 ([2]; read-out: 2a JFH) [nM] | EC50 ([2]; read-out: 2a JFH (nM)) [nM] | EC50 ([3]; read-out: 3a) [nM] | EC50 ([3]; read-out: 3a (nM)) [nM] | EC50 ([4]; read-out: 2a J6) [nM] | EC50 ([4]; read-out: 2a J6 (s) (nM)) [nM] | EC50 ([5]; read-out: 2b) [nM] | EC50 ([5]; read-out: 2b (s) (nM)) [nM] | EC50 ([6]; read-out: 4a) [nM] | EC50 ([6]; read-out: 4a (s) (nM)) [nM] | EC50 ([6]; read-out: 4a (t) (nM)) [nM] | EC50 ([4]; read-out: 2a Jb (t) (nM)) [nM] | EC50 ([5]; read-out: 2b (t) (nM)) [nM] | EC50 ([7]; read-out: 1a Q30R) [nM] | EC50 ([7]; read-out: 1a Q30R (nM)) [nM] |
| --- | --- | --- | --- | --- | --- | --- | --- | --- | --- | --- | --- | --- | --- | --- | --- | --- | --- |
| COC[C@H]1C[C@@H](c2nc3ccc4cc5c(cc4c3[nH]2)OCc2cc(-c3ccc4nc([C@@H]6CCCN6C(=O)[C@@H](NC(=O)OC)C(C)C)[nH]c4c3)ccc2-5)N(C(=O)[C@@H](NC(=O)OC)C(C)C)C1 | < 1 | 0.003 | < 1 | 0.021 | 1 to 4.99 | 1.09 | > 5 | 44.4 | > 5 | 44.4 | < 1 | 0.025 | 0.015 |  |  |  |  |
| COC[C@@H]1C[C@@H](c2nc3c([nH]2)-c2cc4c(cc2CC3)-c2ccc(-c3cnc([C@@H]5CCCN5C(=O)[C@@H](NC(=O)OC)C(C)C)[nH]3)cc2CO4)N(C(=O)[C@@H](NC(=O)OC)C(C)C)C1 [Compound 493] | < 1 | 0.036 | < 1 | 0.008 | < 1 | 0.05 | > 5 | 5.04 | < 1 | 0.65 | < 1 | 0.018 | 0.013 |  |  |  |  |
| CCC(=O)N[C@@H](C(=O)N1CCC[C@H]1c1ncc(-c2ccc3c(c2)COc2cc4c(ccc5nc([C@@H]6CCCN6C(=O)[C@@H](NC(=O)OC)C(C)C)[nH]c54)cc2-3)[nH]1)c1ccccc1 [Compound 499] | < 1 | 0.057 | < 1 | 0.008 | < 1 | 0.01 | < 1 | 0.206 | < 1 | 0.04 | < 1 | 0.005 | 0.021 |  |  |  |  |
| COC(=O)N[C@H](C(=O)N1CCC[C@H]1c1ncc(-c2ccc3c(c2)COc2cc4c(cc2-3)CCc2nc([C@@H]3CCCN3C(=O)[C@H](NC(=O)C3CC3)c3ccccc3)[nH]c2-4)[nH]1)C(C)C [Compound 503] | < 1 | 0.062 | < 1 | 0.012 | < 1 | 0.016 | < 1 | 0.155 | < 1 | 0.037 | < 1 | 0.025 | 0.028 |  |  |  |  |
| COC[C@H]1C[C@@H](c2nc3ccc4cc5c(cc4c3[nH]2)OCc2cc(-c3cnc([C@@H]4CCCN4C(=O)[C@H](NC(=O)C4CC4)c4ccccc4)[nH]3)ccc2-5)N(C(=O)[C@@H](NC(=O)OC)C(C)C)C1 [Compound 510] | < 1 | 0.021 | < 1 | 0.009 | < 1 | 0.008 | < 1 | 0.018 | < 1 | 0.02 | < 1 | 0.072 | 0.016 | 0.007 | 0.017 |  |  |
| COC(=O)N[C@H](C(=O)N1CCC[C@H]1c1ncc(-c2ccc3c(c2)COc2cc4c(ccc5nc([C@@H]6C[C@H]7C[C@H]7N6C(=O)[C@@H](NC(=O)OC)C(C)C)[nH]c54)cc2-3)[nH]1)C(C)C [Compound 518] | < 1 | 0.005 | < 1 | 0.006 | < 1 | 0.005 | 1 to 4.99 | 2.49 | < 1 | 0.643 | < 1 | 0.011 | 0.004 |  |  |  |  |
| COC[C@H]1C[C@@H](c2ncc(-c3ccc4c(c3)COc3cc5c(ccc6nc([C@@H]7CCCN7C(=O)[C@H](NC(=O)OC)c7ccccc7)[nH]c65)cc3-4)[nH]2)N(C(=O)[C@@H](NC(=O)OC)[C@@H](C)OC)C1 [Compound 626] | < 1 | 0.021 | < 1 | 0.009 | < 1 | 0.027 | < 1 |  | < 1 |  |  |  |  | 0.021 | 0.021 | < 1 | 0.041 |
| COC(=O)N[C@H](C(=O)N1[C@@H](C)CC[C@H]1c1ncc(-c2ccc3c(c2)COc2cc4c(ccc5nc([C@@H]6CCCN6C(=O)[C@H](NC(=O)OC)c6ccccc6)[nH]c54)cc2-3)[nH]1)C(C)C [Example NQ, Methyl {(2S)-1-[(2S,5S)-2-(5-{2-[(2S)-1-{(2R)-2-[(methoxycarbonyl)amino]-2-phenylacetyl}pyrrolidin-2-yl]-1,11-dihydroisochromeno[4′,3′:6,7]naphtho[1,2-d]imidazol-9-yl}-1H-imidazol-2-yl)-5-methylpyrrolidin-1-yl]-3-methyl-1-oxobutan-2-yl}carbamate] | < 1 | 0.017 | < 1 | 0.006 | < 1 | 0.013 | < 1 |  | < 1 | 0.012 |  |  |  | 0.064 | 0.013 | < 1 | 0.039 |
| CC[C@H](C)[C@H](NC(=O)OC)C(=O)N1C[C@@H](COC)C[C@H]1c1ncc(-c2ccc3c(c2)COc2cc4c(ccc5nc([C@@H]6C[C@H](COC)CN6C(=O)[C@@H](NC(=O)OC)[C@@H](C)CC)[nH]c54)cc2-3)[nH]1 [Example OJ] | < 1 | 0.018 | < 1 | 0.013 | < 1 | 0.259 | < 1 | 0.502 | < 1 | 0.813 | < 1 | 0.017 | 0.026 |  |  |  |  |
| CC[C@H](C)[C@H](NC(=O)OC)C(=O)N1C[C@@H](COC)C[C@H]1c1nc2ccc3cc4c(cc3c2[nH]1)OCc1cc(-c2cnc([C@@H]3CC[C@H](C)N3C(=O)[C@@H](NC(=O)OC)C(C)C)[nH]2)ccc1-4 [Example ON, methyl {(2S)-1-[(2S,4S)-2-(5-{2-[(2S,5S)-1-{(2S,3S)-2-[(methoxycarbonyl)amino]-3-methylpentanoyl}-4-(methoxymethyl)-2-yl]-1,11-dihydroisochromeno[4′,3′:6,7]naphtho[1,2-d]imidazol-9-yl}-1H-imidazol-2-yl)-5-methylpyrrolidin-1-yl]-3-methyl-1-oxobutan-2-yl}carbamate] | < 1 | 0.005 | < 1 | 0.004 |  |  | < 1 |  |  |  |  |  |  | 0.068 | 0.086 | < 1 |  |
| COC(=O)N[C@H](C(=O)N1CCCC1c1ncc(-c2ccc3c(c2)COc2cc4c(ccc5nc([C@@H]6C[C@@H]7CCC[C@@H]7N6C(=O)[C@@H](NC(=O)OC)C(C)C)[nH]c54)cc2-3)[nH]1)C(C)C (stereo partly drawn) [Example PO, methyl {(2S)-1-[2-(5-{2-[(2S,3aS,6aS)-1-{(2S)-2-[(methoxycarbonyl)amino]-3-methylbutanoyl}octahydrocyclopenta[b]pyrrol-2-yl]-1,11-dihydroisochromeno[4′,3′:6,7]naphtho[1,2-d]imidazol-9-yl}-1H-imidazol-2-yl)pyrrolidin-1-yl]-3-methyl-1-oxobutan-2-yl}carbamate] | < 1 | 0.013 | < 1 | 0.011 | < 1 | 0.012 | 1 to 4.99 | 3.13 | < 1 | 0.47 | < 1 | 0.013 | 0.013 |  |  |  |  |
